The subject of series [1] is GM15850. In words: Cytotoxicity against human GM15850 cells at 0.25 to 2.5 uM after 24 to 48 hrs by live/dead staining-based flow cytometry. To be noted: gm15850, 2.5 µM. Format: cell-based.
Series [2] has as its system GM15850. In words: Inhibition of ATP production in human GM15850 cells at 2.5 uM after 24 hrs by Vialight reagent based luminescence assay. Format: functional, cell-based.
Series [3] has as its system GM15850. In words: Increase in ATP production in human GM15850 cells at 0.1 uM after 24 hrs by Vialight reagent based luminescence assay. Format: functional, cell-based.
The test system of series [4] is GM15850. In words: Increase in frataxin expression in human GM15850 cells at 50 to 250 nM after 24 to 48 hrs by ELISA. The format is functional, cell-based.
Series [5] concerns GM16216. In words: Inhibition of ATP production in human GM16216 cells at 2.5 uM after 24 hrs by Vialight reagent based luminescence assay. Format: functional, cell-based.
In series [6] the test system is GM15850. In words: Effect on mitochondrial membrane potential in human GM15850 cells assessed as loss of mitochondrial membrane potential at 0.25 uM after 16 hrs by JC1 staining based flow cytometry (reference value: 13%). Format: functional.
Series [7] has as its system GM16216. In words: Increase in ATP production in human GM16216 cells at 0.1 uM after 24 hrs by Vialight reagent based luminescence assay. The format is functional, cell-based.
Series [8] concerns GM16216. In words: Cytotoxicity against human GM16216 cells at 0.25 to 2.5 uM after 24 to 48 hrs by live/dead staining-based flow cytometry. The format is cell-based. To be noted: gm16216, 2.5 µM.
Series [9] relates to GM15850. In words: Effect on ATP production in human GM15850 cells at 0.5 uM after 24 hrs by Vialight reagent based luminescence assay. Format: functional, cell-based.
The subject of series [10] is GM16216. In words: Induction of mitochondrial biogenesis in human GM16216 cells assessed as increase in ratio of COX1 to SDH-A protein levels at 50 to 250 nM after 24 to 48 hrs by ELISA. Format: functional, cell-based.
In series [11] the test system is GM15850. In words: Effect on mitochondrial membrane potential in human GM15850 cells assessed as intact mitochondrial membrane at 0.25 uM after 16 hrs by JC1 staining based flow cytometry (reference value: 87%). The format is functional.
Series [12] concerns GM16216. In words: Effect on mitochondrial membrane potential in human GM16216 cells assessed as intact mitochondrial membrane at 0.25 uM after 16 hrs by JC1 staining based flow cytometry (reference value: 87%). Format: functional.
The subject of series [13] is GM15850. In words: Induction of mitochondrial biogenesis in human GM15850 cells assessed as increase in ratio of COX1 to SDH-A protein levels at 50 to 250 nM after 24 to 48 hrs by ELISA. The format is functional, cell-based.
Series [14] concerns GM16216. In words: Effect on ATP production in human GM16216 cells at 0.5 uM after 24 hrs by Vialight reagent based luminescence assay. Format: functional, cell-based.
The subject of series [15] is GM16216. In words: Cytoprotection against DEM-induced toxicity in human GM16216 cells assessed as increase in cell viability pretreated for 16 hrs followed by DEM addition and measured after 5 hrs by live/dead staining based flow cytometry. The format is functional.
Series [16] concerns GM16216. In words: Increase in frataxin expression in human GM16216 cells at 50 to 250 nM after 24 to 48 hrs by ELISA. The format is functional, cell-based.
In series [17] the test system is GM16216. In words: Effect on mitochondrial membrane potential in human GM16216 cells assessed as loss of mitochondrial membrane potential at 0.25 uM after 16 hrs by JC1 staining based flow cytometry (reference value: 13%). Format: functional.
Series [18] deals with GM15850. In words: Cytoprotection against DEM-induced toxicity in human GM15850 cells assessed as increase in cell viability pretreated for 16 hrs followed by DEM addition and measured after 5 hrs by live/dead staining based flow cytometry. The format is functional.
The subject of series [19] is GM15850. In words: Effect on ATP production in human GM15850 cells at 0.1 to 0.5 uM after 24 hrs by Vialight reagent based luminescence assay. Format: functional, cell-based.
The test system of series [20] is GM16216. In words: Effect on ATP production in human GM16216 cells at 0.1 to 0.5 uM after 24 hrs by Vialight reagent based luminescence assay. The format is functional, cell-based.
The test system of series [21] is GM16216. In words: Cytotoxicity against human GM16216 cells at 2.5 uM after 48 hrs by live/dead staining-based flow cytometry. Format: cell-based. The conditions noted are these: gm16216, 48 h.
Series [22] has as its system GM15850. In words: Inhibition of ATP production in human GM15850 cells after 24 hrs by Vialight reagent based luminescence assay. The format is functional, cell-based.
Series [23] has as its system GM15850. In words: Effect on ATP production in human GM15850 cells at 0.1 uM after 24 hrs by Vialight reagent based luminescence assay. The format is functional, cell-based.
The test system of series [24] is GM16216. In words: Inhibition of ATP production in human GM16216 cells after 24 hrs by Vialight reagent based luminescence assay. The format is functional, cell-based.
In series [25] the test system is GM16216. In words: Effect on ATP production in human GM16216 cells at 0.1 uM after 24 hrs by Vialight reagent based luminescence assay. The format is functional, cell-based.
Series [26] concerns GM15850. In words: Cytotoxicity against human GM15850 cells at 2.5 uM after 48 hrs by live/dead staining-based flow cytometry. Format: cell-based. To be noted: gm15850, 48 h.

Activity calls are given as the source filed them. The rule behind the calls is not given here.

Regarding `CCCCCCCCCCCc1cc2nc3ccc(N(C)C)cc3sc-2cc1=O`, the Activity entry in series [1] was “Non-Toxic”; in series [6] it was 14%; in series [8] it was “Non-Toxic”; in series [11] it was 86%; in series [12], 86%; in series [15], “Dose-dependent effect”. For the same compound, the Activity in series [17] was 14%; in [18], “Dose-dependent effect”. Also, the inhibition entry in series [2] and in series [5] was “Active” in each case. For the same compound, the outcome in [3], in [4], in [7], in series [10], in [13] and in series [16] was Active. Further, the outcome in series [9] and in [14] was inactive.

Turning to `CCCCCCCCCCCCCc1cc2nc3ccc(N(C)C)cc3sc-2cc1=O`, the Activity result in [1] is “Non-Toxic”; in series [6] it was 13%; in [8], “Non-Toxic”; in [11], 87%; in series [12], 87%; in [17], 13%. Also, the outcome in series [19] and in [20] was inactive. Further, the inhibition result in series [2] and in series [5] was “Active” each time. For the same compound, the outcome in series [4], in series [10], in series [13] and in [16] was Active.

For `CCCCCc1cc2nc3ccc(N(C)C)cc3sc-2cc1=O`, the Activity entry in [21] is “Toxic”; in [6], 16%; in [11] it was 84%; in series [12], 84%; in series [15], “Dose-dependent effect”; in series [17], 16%. Also, the Activity entry in series [18] was “Dose-dependent effect”; in series [26] it was “Toxic”. Moreover, the inhibition entry in series [22] and in series [24] was “Dose-dependent effect” throughout. Also, the outcome in series [23] and in series [25] was inactive.

The values above are taken from ChEMBL document CHEMBL4257548, “Phenothiazine antioxidants increase mitochondrial biogenesis and frataxin levels in Friedreich's ataxia cells” (Medchemcomm, 2018).
